According to patent US20070254859A1 (priority 2006, published 2007):

Experiments:
Caco-2 cells = conditions: compound 30 μM on both sides, Rhodamine 123 10 μM, Bl-Ap direction, Caco-2 monolayers; read from FIG. 2
in vivo = conditions: male, Wistar-Hannover, rat, plasma, po, 12 mg/kg
Method: Male, Wistar-Hannover rats (257-313 g) were used; animals were cannulated in the jugular vein for blood sampling. Animals were individually housed at 18-26° C. with 30-70% humidity. Animals were allowed free movement and access to water with 12 h dark and light cycles. Dosing was 2-4 h after the beginning of a light cycle and dosing time across each group was consistent. All animals had access to water, ad libitum, and were fasted 8 h prior to dosing; food was returned 5 h post-dose. Animals were dosed using a 1 mL syringe. Group 1, the intravenous group (raloxifene, 2.5 mg/kg), was dosed using an infusion rate of ˜0.3 mL per minute.
Sampling—using an AccuSampler®, blood samples (˜120 μL) were collected from 4 animals/group/time point from a catheter inserted into the jugular vein. Blood samples were taken and removed blood volume was replaced by an equivalent volume of intraperitoneal saline after each draw. Blood samples were centrifuged and plasma transferred into a designated well of a 96-well plate. Samples were kept frozen (−80±10° C.) until sample preparation and HPLC/MS/MS analysis.
Internal standard (IS) solution was prepared in a 500 mL volumetric flask containing 1:1 v/v acetonitrile:methanol and ˜0.04 μM of saquinavir base. Individually, the 96-well plates were removed from the freezer (−80±10° C.) and allowed to warm to ambient temperature (˜45-50 min). The in vivo plasma samples, either 25 or 50 μL, were transferred into separate 1.5 mL micro-centrifuge tubes. Total plasma volume was brought to ˜100 μL by adding male Wistar-Hannover plasma (potassium EDTA). Subsequently, 200 μL of IS solution was added, capped, mixed (˜5 sec) and centrifuged at 13,200 rpm for 10 mm using an Eppendorf minispin centrifuge. The supernatant (˜250 μL) was transferred into individual wells of a 96-well plate. The 96-well plate was sealed and centrifuged at 3000 rpm for 10 min at 10° C. […] The 96-well plate was then placed into the auto-sampler cool-stack (˜6° C.) and analyzed via LC/MS/MS. Raloxifene, and raloxifene glucuronide standard curves and quality control (QC's) samples were prepared in an analogous way as described above. […] The limit of detection (LOD) for raloxifene was ˜0.2 ng/mL while the glucuronides were ˜0.1 ng/mL.

Compound: d-α-tocopheryl polyethylene glycol succinate [TPGS 1000]
- RHO in vitro efflux inhibition (Caco-2 cells): ~40%

Compound: O=C(c1ccc(OCCN2CCCCC2)cc1)c1c(-c2ccc(O)cc2)sc2cc(O)ccc12 [raloxifene]
- AUC(0-t) (in vivo): 452 ng·h/mL
- Cmax (in vivo): 50 to 60 ng/mL
- Tmax (in vivo): ~4 h
- bioavailability (in vivo): 3.6 ± 0.8%
